From patent US20070286890A1, “Eyelash applicator and method” (priority 2006, published 2007) come the findings set out here.

Each structure is given as a SMILES string.

For this data set, the system named is eyelashes of healthy female volunteers. As to the kind of experiment: Open-label study of Lumigan applied with an applicator to the upper eyelid margin, four months. Format: in vivo, human.
Where [1] appears, read: one drop on applicator tip, applied to lid margin of both upper eyelids before bedtime, through week 12, 25 volunteers, no controls, preliminary findings.

In the case of `CCNC(=O)CCC/C=C\C[C@@H]1[C@@H](/C=C/[C@@H](O)CCc2ccccc2)[C@H](O)C[C@@H]1O` [Lumigan®, cyclopentane N-ethyl heptanamide-5-cis-2-(3α-hydroxy-5-phenyl-1trans-pentenyl)-3,5-dihydroxy, [1α,2β,3α,5α]], under setting [1], the “Darker and thicker lashes, additional lashes” value is “many grew darker and thicker lashes as well as additional lashes”; the “Eyelash length (longer lashes)” value is given as “Every participant grew longer lashes”. Also, under “patients applied Lumigan "on their own" to these areas”, the “Growth of lower lid lashes and eyebrow hairs” value is “grew lower lid lashes and eyebrow hairs”. In addition, the “Side effects (vision, IOP, ocular irritation, periocular pigmentary changes)” value (topical application to upper eyelid margin, through week 12, visits up to week 16, preliminary findings) is “Minimal Side Effects”.
